# According to patent US20240083908A1, “TETRAHYDROTHIENOPYRIMIDINESULFONAMIDE COMPOUNDS” (priority 2020, published 2024):
# pIC50: −log10 of the molar value.
# Target: human recombinant PARG (Homo sapiens (Human), UniProt Q86W56)
# Assay: PARG Activity Assay
# Format: biochemical
# Conditions: recombinant human PARG 0.0185 nM, 1 hour pre-incubation, poly (ADP-ribose) substrate-coated plate, Abs 450
# Experimental: In order to evaluate the PARG inhibitory activity of the present compound, the inhibitory activity of each test compound against human recombinant PARG was measured. The specific procedure is described below.
# Test compound was dissolved in dimethyl sulfoxide and prepared a 10 mM stock solution.
# PARG Activity Assay was performed in Streptavidin-coated 96-well plates. […] The substrate solution was added to the 96-well plate at the volume of 200 micro liter per well and incubated for 3 hours at room temperature. After the incubation, the substrate solution was discarded and assay plate was washed 4 times with 220 micro liter of PBS containing 0.1% Tween20 (PBST). […] The diluted enzyme solution was pre-incubated with compounds for 1 hour at room temperature in a 96-well plate and transferred 100 micro liter per well to the poly (ADP-ribose) substrate-coated assay plate. The plate was incubated for 1 hour at 25° C. and then washed 4 times with 220 micro liters of PBST. For the detection of non-digested poly (ADP-ribose) polymer on the plate, mouse anti-poly (ADP-ribose) antibody diluted with 0.2% BSA containing PBS was added 100 micro liters per well and incubated 1 hour at room temperature. Plate was washed 4 times with TBST and 100 micro liter of HRP-labeled anti-mouse Ig antibody was added to the wells. Plate was incubated for 30 minutes at room temperature and then washed 4 times with PBST. For the detection 100 micro liters of TMB substrate solution was added to the wells. After sufficient color development, reaction was stopped by addition of 50 micro liter of 0.2 M […]. The 450 nm absorbance (Abs 450) of each well was read with a micro plate reader. The assay was performed by duplicated and average of 2 independent assays were used for the determination of PARG inhibitor y activity.
# Wells treated with dimethyl sulfoxide instead of test compound solution were designated as a Negative Control of assay
# Wells treated with 0.2% BSA containing PBS instead of recombinant human PARG protein and with dimethyl sulfoxide instead of test compound solution were designated as a Positive Control of assay.
# The PARG Inhibitory Activity (%) was determined by the following formulation.
# PARG Inhibitory Activity (%)=[(AbsX−AbsA)/(AbsB−AbsA)]×100
# (wherein, • AbsA is absorbance (Abs 450) of Negative Control wells • AbsB is absorbance (Abs 450) of Positive Control wells • AbsX is absorbance (Abs 450) of wells treated with test compound.)
# In Table, Ex indicates an Example number shown below.
# Sequence of human recombinant PARG (Q86W56 whole entry): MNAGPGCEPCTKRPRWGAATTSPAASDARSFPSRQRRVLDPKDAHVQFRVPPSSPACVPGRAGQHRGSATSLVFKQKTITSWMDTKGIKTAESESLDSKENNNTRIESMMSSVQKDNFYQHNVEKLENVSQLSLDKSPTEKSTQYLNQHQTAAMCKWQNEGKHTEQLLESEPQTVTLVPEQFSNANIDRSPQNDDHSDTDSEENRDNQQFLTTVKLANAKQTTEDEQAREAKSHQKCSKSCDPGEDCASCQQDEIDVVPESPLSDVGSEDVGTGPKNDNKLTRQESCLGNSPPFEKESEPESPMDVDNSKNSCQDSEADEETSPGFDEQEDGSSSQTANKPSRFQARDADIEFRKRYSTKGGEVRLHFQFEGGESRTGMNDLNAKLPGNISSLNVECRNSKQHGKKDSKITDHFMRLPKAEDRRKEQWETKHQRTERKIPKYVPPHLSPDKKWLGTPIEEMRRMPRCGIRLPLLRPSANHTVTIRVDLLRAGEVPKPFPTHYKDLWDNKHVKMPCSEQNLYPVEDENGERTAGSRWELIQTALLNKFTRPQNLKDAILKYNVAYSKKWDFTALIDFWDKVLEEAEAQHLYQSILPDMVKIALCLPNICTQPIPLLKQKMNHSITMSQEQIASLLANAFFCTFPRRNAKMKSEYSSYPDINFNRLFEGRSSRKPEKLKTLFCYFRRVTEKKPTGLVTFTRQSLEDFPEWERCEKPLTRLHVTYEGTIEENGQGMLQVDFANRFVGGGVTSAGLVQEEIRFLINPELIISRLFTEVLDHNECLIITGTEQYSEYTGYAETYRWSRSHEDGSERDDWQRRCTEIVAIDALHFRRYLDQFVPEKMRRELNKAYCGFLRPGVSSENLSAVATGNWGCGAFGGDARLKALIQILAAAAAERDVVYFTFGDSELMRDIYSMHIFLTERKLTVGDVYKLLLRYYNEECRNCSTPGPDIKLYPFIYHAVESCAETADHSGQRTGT
row,Compound,pIC50
1,Cc1cc(Cn2c(=O)n(Cc3cnc(C)s3)c(=O)c3cc(S(=O)(=O)NC4(C)CC4)sc32)n(C)n1 [Ex 3],7.54
2,Cc1ncc(Cn2c(=O)c3cc(S(=O)(=O)NC4(C)CC4)sc3n(Cc3ccc4[nH]ncc4c3)c2=O)s1 [Ex 4],7.96
3,Cc1ncc(Cn2c(=O)c3cc(S(=O)(=O)NC4(C)CC4)sc3n(Cc3ccc4cn[nH]c4c3)c2=O)s1 [Ex 5],7.92
4,Cc1ncc(Cn2c(=O)c3cc(S(=O)(=O)NC4(C)CC4)sc3n(CCOC3CNC3)c2=O)s1 [Ex 7],6.68
5,Cc1ncc(Cn2c(=O)c3cc(S(=O)(=O)NC4(C)CC4)sc3n(CCCN)c2=O)s1 [Ex 9],5.97
6,Cc1ncc(Cn2c(=O)c3cc(S(=O)(=O)NC4(C)CC4)sc3n(Cc3cnc4[nH]ccc4c3)c2=O)s1 [Ex 10],7.80
7,Cc1ncc(Cn2c(=O)c3cc(S(=O)(=O)NC4(C)CC4)sc3n(Cc3ccc4cc[nH]c4c3)c2=O)s1 [Ex 11],6.80
8,Cc1ncc(Cn2c(=O)c3cc(S(=O)(=O)NC4(C)CC4)sc3n(Cc3ccc4c(c3)OCC4)c2=O)s1 [Ex 13],7.39
9,Cc1ncc(Cn2c(=O)c3cc(S(=O)(=O)NC4(C)CC4)sc3n(CC3CCOCC3)c2=O)s1 [Ex 14],6.49
10,Cc1ncc(Cn2c(=O)c3cc(S(=O)(=O)NC4(C)CC4)sc3n(CC3CCCO3)c2=O)s1 (stereo not drawn) [Ex 15],6.22
11,Cc1ncc(Cn2c(=O)c3cc(S(=O)(=O)NC4(C)CC4)sc3n(CC3CCOC3)c2=O)s1 (stereo not drawn) [Ex 16],6.01
12,Cc1ncc(Cn2c(=O)c3cc(S(=O)(=O)NC4(C)CC4)sc3n(CC3CCCOC3)c2=O)s1 (stereo not drawn) [Ex 17],6.33
13,Cc1ncc(Cn2c(=O)c3cc(S(=O)(=O)NC4(C)CC4)sc3n(Cc3nc4ccccc4[nH]3)c2=O)s1 [Ex 18],6.24
14,Cc1ncc(Cn2c(=O)c3cc(S(=O)(=O)NC4(C)CC4)sc3n(Cc3cc4n(n3)CCOC4)c2=O)s1 [Ex 19],6.89
15,Cc1ncc(Cn2c(=O)c3cc(S(=O)(=O)NC4(C)CC4)sc3n(Cc3nc4c(o3)CCCC4)c2=O)s1 [Ex 20],6.96
16,CCNS(=O)(=O)c1cc2c(=O)n(Cc3cnc(C)s3)c(=O)n(CC3CC3)c2s1 [Ex 21],4.12
17,Cc1ncc(Cn2c(=O)c3cc(S(=O)(=O)NC(C)C)sc3n(CC3CC3)c2=O)s1 [Ex 22],4.03
18,CNS(=O)(=O)c1cc2c(=O)n(Cc3cnc(C)s3)c(=O)n(CC3CC3)c2s1 [Ex 23],4.01
19,Cc1ncc(Cn2c(=O)c3cc(S(=O)(=O)NC4CC4)sc3n(CC3CC3)c2=O)s1 [Ex 24],5.65
20,Cn1cc(Cn2c(=O)c3cc(S(=O)(=O)NC4(C)CC4)sc3n(CC3CC3)c2=O)cn1 [Ex 26],6.43
21,CC#CCn1c(=O)n(Cc2cnn(C)c2)c(=O)c2cc(S(=O)(=O)NC3(C)CC3)sc21 [Ex 27],6.60

row,Compound,pIC50
1,Cc1cc(Cn2c(=O)n(Cc3cnn(C)c3)c(=O)c3cc(S(=O)(=O)NC4(C)CC4)sc32)n(C)n1 [Ex 30],7.43
2,Cc1cc(Cn2c(=O)n(Cc3cnn(C)c3)c(=O)c3cc(S(=O)(=O)NC4(C)CC4)sc32)[nH]n1 [Ex 31],7.54
3,Cc1nn(C)cc1Cn1c(=O)n(Cc2cnn(C)c2)c(=O)c2cc(S(=O)(=O)NC3(C)CC3)sc21 [Ex 32],5.16
4,Cn1cc(Cn2c(=O)c3cc(S(=O)(=O)NC4(C)CC4)sc3n(Cc3cc4n(n3)CCOC4)c2=O)cn1 [Ex 33],7.46
5,Cn1cc(Cn2c(=O)c3cc(S(=O)(=O)NC4(C)CC4)sc3n(Cc3cncnc3)c2=O)cn1 [Ex 34],6.52
6,Cn1cc(Cn2c(=O)c3cc(S(=O)(=O)NC4(C)CC4)sc3n(Cc3cnc(C#N)s3)c2=O)cn1 [Ex 35],7.46
7,Cn1cc(Cn2c(=O)c3cc(S(=O)(=O)NC4(C)CC4)sc3n(Cc3cnc4[nH]ccc4c3)c2=O)cn1 [Ex 37],8.05
8,Cn1cc(Cn2c(=O)c3cc(S(=O)(=O)NC4(C)CC4)sc3n(Cc3ccc4[nH]ncc4c3)c2=O)cn1 [Ex 38],8.39
9,Cn1cc(Cn2c(=O)c3cc(S(=O)(=O)NC4(C)CC4)sc3n(Cc3ccc4[nH]c(=O)oc4c3)c2=O)cn1 [Ex 39],7.68
10,Cn1cc(Cn2c(=O)c3cc(S(=O)(=O)NC4(C)CC4)sc3n(Cc3cc4c(cn3)COC4)c2=O)cn1 [Ex 41],7.01
11,COc1cncc(Cn2c(=O)n(Cc3cnn(C)c3)c(=O)c3cc(S(=O)(=O)NC4(C)CC4)sc32)c1 [Ex 42],7.40
12,COc1cc(Cn2c(=O)n(Cc3cnn(C)c3)c(=O)c3cc(S(=O)(=O)NC4(C)CC4)sc32)ccn1 [Ex 43],7.54
13,COc1ccc(Cn2c(=O)n(Cc3cnn(C)c3)c(=O)c3cc(S(=O)(=O)NC4(C)CC4)sc32)cn1 [Ex 44],7.32
14,CN1Cc2cc(Cn3c(=O)n(Cc4cnn(C)c4)c(=O)c4cc(S(=O)(=O)NC5(C)CC5)sc43)ccc2C1=O [Ex 45],7.89
15,Cn1cc(Cn2c(=O)c3cc(S(=O)(=O)NC4(C)CC4)sc3n(Cc3ccc(F)cc3)c2=O)cn1 [Ex 46],8.04
16,Cn1cc(Cn2c(=O)c3cc(S(=O)(=O)NC4(C)CC4)sc3n(Cc3ccc(Cl)c(F)c3)c2=O)cn1 [Ex 47],6.89
17,Cn1cc(Cn2c(=O)c3cc(S(=O)(=O)NC4(C)CC4)sc3n(Cc3ccc(F)c(Cl)c3)c2=O)cn1 [Ex 48],6.92
18,Cn1cc(Cn2c(=O)c3cc(S(=O)(=O)NC4(C)CC4)sc3n(Cc3ccc(C4CC4)cc3)c2=O)cn1 [Ex 49],7.02
19,Cn1cc(Cn2c(=O)c3cc(S(=O)(=O)NC4(C)CC4)sc3n(Cc3ccc(OC(F)F)cc3)c2=O)cn1 [Ex 51],7.48
20,Cn1cc(Cn2c(=O)c3cc(S(=O)(=O)NC4(C)CC4)sc3n(Cc3ccc(OC(F)(F)F)cc3)c2=O)cn1 [Ex 52],7.00
21,Cn1cc(Cn2c(=O)c3cc(S(=O)(=O)NC4(C)CC4)sc3n(Cc3ccc(C#N)cc3)c2=O)cn1 [Ex 53],7.28

row,Compound,pIC50
1,CNc1ncc(Cn2c(=O)n(Cc3cnn(C)c3)c(=O)c3cc(S(=O)(=O)NC4(C)CC4)sc32)cn1 [Ex 54],7.31
2,Cn1cc(Cn2c(=O)c3cc(S(=O)(=O)NC4(C)CC4)sc3n(Cc3cnn(CC(F)F)c3)c2=O)cn1 [Ex 56],7.44
3,COCc1ncc(Cn2c(=O)n(Cc3cnn(C)c3)c(=O)c3cc(S(=O)(=O)NC4(C)CC4)sc32)s1 [Ex 58],6.59
4,Cn1cc(Cn2c(=O)c3cc(S(=O)(=O)NC4(C)CC4)sc3n(Cc3ccc4c(c3)CCO4)c2=O)cn1 [Ex 59],7.66
5,Cn1cc(Cn2c(=O)c3cc(S(=O)(=O)NC4(C)CC4)sc3n(Cc3ccc4c(c3)CNC4=O)c2=O)cn1 [Ex 60],7.62
6,Cn1cc(Cn2c(=O)c3cc(S(=O)(=O)NC4(C)CC4)sc3n(Cc3ccc4c(c3)C(=O)NC4)c2=O)cn1 [Ex 61],7.96
7,CN1Cc2ccc(Cn3c(=O)n(Cc4cnn(C)c4)c(=O)c4cc(S(=O)(=O)NC5(C)CC5)sc43)cc2C1=O [Ex 62],7.54
8,Cn1cc(Cn2c(=O)c3cc(S(=O)(=O)NC4(C)CC4)sc3n(Cc3cnc4c(c3)OCCO4)c2=O)cn1 [Ex 65],7.17
9,Cn1cc(Cn2c(=O)c3cc(S(=O)(=O)NC4(C)CC4)sc3n(Cc3ccc4c(c3)CNC4)c2=O)cn1 [Ex 66],7.34
10,CN1Cc2ccc(Cn3c(=O)n(Cc4cnn(C)c4)c(=O)c4cc(S(=O)(=O)NC5(C)CC5)sc43)cc2C1 [Ex 67],7.00
11,Cn1cc(Cn2c(=O)c3cc(S(=O)(=O)NC4(C)CC4)sc3n(Cc3ccc(OC4CCC4)cc3)c2=O)cn1 [Ex 69],6.55
12,Cn1cc(Cn2c(=O)c3cc(S(=O)(=O)NC4(C)CC4)sc3n(Cc3ccc(F)c(C#N)c3)c2=O)cn1 [Ex 70],7.22
13,CN(C)c1ccc(Cn2c(=O)n(Cc3cnn(C)c3)c(=O)c3cc(S(=O)(=O)NC4(C)CC4)sc32)cc1F [Ex 71],6.92
14,CCN(C)c1ccc(Cn2c(=O)n(Cc3cnn(C)c3)c(=O)c3cc(S(=O)(=O)NC4(C)CC4)sc32)cc1F [Ex 72],6.72
15,CNc1ccc(Cn2c(=O)n(Cc3cnn(C)c3)c(=O)c3cc(S(=O)(=O)NC4(C)CC4)sc32)cc1F [Ex 73],7.77
16,CN(c1ccc(Cn2c(=O)n(Cc3cnn(C)c3)c(=O)c3cc(S(=O)(=O)NC4(C)CC4)sc32)cc1F)C1CC1 [Ex 74],6.68
17,COCCN(C)c1ccc(Cn2c(=O)n(Cc3cnn(C)c3)c(=O)c3cc(S(=O)(=O)NC4(C)CC4)sc32)cc1F [Ex 75],6.89
18,CN(CCO)c1ccc(Cn2c(=O)n(Cc3cnn(C)c3)c(=O)c3cc(S(=O)(=O)NC4(C)CC4)sc32)cc1F [Ex 76],7.24
19,COCCNc1ncc(Cn2c(=O)n(Cc3cnn(C)c3)c(=O)c3cc(S(=O)(=O)NC4(C)CC4)sc32)cn1 [Ex 79],7.15
20,Cn1cc(Cn2c(=O)c3cc(S(=O)(=O)NC4(C)CC4)sc3n(Cc3cnc(NCCO)nc3)c2=O)cn1 [Ex 80],6.38
21,Cn1cc(Cn2c(=O)c3cc(S(=O)(=O)NC4(C)CC4)sc3n(Cc3ccc(N4CCOCC4)nc3)c2=O)cn1 [Ex 81],6.70
